Source: US20230150984A1, “NICOTINAMIDE MONONUCLEOTIDE AND NICOTINAMIDE RIBOSIDE DERIVATIVES AND USE THEREOF IN THE TREATMENT OF VIRAL INFECTIONS AND RESPIRATORY COMPLICATIONS, IN […] BY INFL[…] CORONAVIRUS” (NUVAMID SA, priority 2020, published 2023)
Entries after “also recorded” stand apart in the source; their conditions may differ.

Experiments:
[1] = tested on: H1N1; assay: NMN and NR on influenza virus pulmonary infection in mice (Example 7); assay type: in vivo; settings: H1N1 infected mice; for Remaining mice, Day 11 / Remaining mice, Day 14: 12 per group, loss of 25% or more bodyweight counted as dead; for Remaining mice, Day 11 / Remaining mice, Day 14 / survival rate at the end of the experiment: I-A or I-G 185 mg/kg i.p. daily, Tamiflu 2x1 mg/kg oral; for body weight loss in comparison to vehicle: I-A or I-G 185 mg/kg, Tamiflu 2 mg/kg, D0 to D14
Description: The compounds I-A and I-G were delivered by intraperitoneal route at 185 mg/kg daily during all the experiment. 72 mice were daily weighed to adapt the volume of compounds. Physiological buffer was used as control and was administrated by i.p once per day during all the experiment. Control animals were orally administrated with Tamiflu at 2 mg/kg during all the experiment. Each animal has been infected with H1N1. The experimental groups are as follows: • vehicle: H1N1 infection+physiological buffer • Tamiflu: H1N1 infection+Tamiflu (2×1 mg/kg) • Compound I-A: H1N1 infection+NMN (185 mg/kg) • Compound I-G: H1N1 infection+NR (185 mg/kg) • Tamiflu+Compound I-A: H1N1 infection+Tamiflu (2×1 mg/kg)+Compound I-A (185 mg/kg) • Tamiflu+Compound I-G: H1N1 infection+Tamiflu (2×1 mg/kg)+Compound I-G (185 mg/kg)
Survival rates, body weight and clinical scores were monitored during all the experiment.
Survival rates (FIG. 7): Animals which lost 25% or more bodyweight, were euthanized for ethical reasons and considered as dead. Survival rates were monitored during all the experiment. […]
Respiratory scoring (FIG. 10): the respiratory scoring was assessed according to the following criteria: […]

[2] = tested on: Influenza virus H1N1 PR/8/34; assay: Murine influenza virus H1N1 PR/8/34 pulmonary infection, lethal dose (Example 2); assay type: in vivo, mice; settings: for body weight evolution D0 to D14 in comparison to vehicle / clinical score / clinical states of the mice D0 to D14: 500 PFU H1N1, I-A 185 mg/kg i.p., Tamiflu 1 mg/kg oral twice a day; for viral load in lung: 8 days after infection with 500 PFU of influenza A virus, vs vehicle group; for survival rate at D14: mice infected intranasally with 500 PFU H1N1 PR/8/34, Tamiflu 1 mg/kg oral gavage twice a day, D0-D14
[3] = tested on: Influenza virus H1N1 PR/8/34 strain; assay: Compound I-A dose-response on influenza virus pulmonary infection (Example 8); assay type: in vivo, mice; settings: for Remaining mice, Day 10 / Remaining mice, Day 14: 500 PFU H1N1 PR/8/34, 12 mice; for viral load in lung: 8 days after infection with 500 PFU of influenza A virus
Description: The model consists in intranasal administration of 500 PFU of Influenza virus H1N1 PR/8/34 strain to induce pneumonia. Compound I-A was delivered by intraperitoneal (i.p.) route at 90, 185 or 500 mg/kg immediately after infection and then daily during all the experiment. Mice were daily weighed to adapt the volume of compounds. Physiological buffer was used as control and was administrated by i.p once per day during all the experiment. Each experimental group comprises 22 mice: 12 mice for the survival study, 5 mice of the flow cytometry analysis and 5 mice for the assessment of viral load.
The experimental groups are the following: • Group 1: Vehicle (i.p.) • Group 2: Compound I-A 90 mg/kg • Group 3: Compound I-A 185 mg/kg • Group 4: Compound I-A 500 mg/kg
At day 8, 5 mice per group are use to measure the following parameters. • Blood collection: 3 aliquots (a, b and c) a)+ac. perchlorique (NAD dosage) b) immune cell characterization (cytometry) c) remaining plasma->freezing • Lung and lymph nodes collection, cell preparation, counting and immune cell characterization (cytometry) • Remaining cells (if any) from the 2 tissues treated for RNAseq • Viral load in the lungs (5 mice per group)
Survival rates, body weight, clinical scores, viral load in lungs and quantification of subsets of immune population in lung, blood and draining lymph node at day 8 post-infection by flow cytometry were monitored during all the experiment.
Survival (FIG. 11): Animals which lost 25% or more bodyweight, were euthanized for ethical reasons and considered as dead. Survival rates were monitored during all the experiment. […]

[4] = I-A 90, 185 or 500 mg/kg i.p. daily

SMILES: CCOC(=O)C1=C[C@@H](OC(CC)CC)[C@H](NC(C)=O)[C@@H](N)C1 [Tamiflu, oseltamivir, reference compound]
- Remaining mice, Day 11 [1]: 8/12
- Remaining mice, Day 14 [1]: 6/12
- survival rate at the end of the experiment [1]: 50%
- body weight loss in comparison to vehicle [1]: decrease the body weight loss
- body weight evolution D0 to D14 in comparison to vehicle [2]: slight improvement
- clinical score / clinical states of the mice D0 to D14 [2]: significantly improved clinical states
- viral load in lung [2]: no impact
- survival rate at D14 ([2]; I-A 185 mg/kg i.p. once a day): 58%

SMILES: NC(=O)c1ccc[n+]([C@@H]2O[C@H](COP(=O)(O)O)[C@@H](O)[C@H]2O)c1 [Compound I-A, Nicotinamide mononucleotide]
- Remaining mice, Day 11 [1]: 7/12
- Remaining mice, Day 14 [1]: 7/12
- survival rate at the end of the experiment [1]: 58%
- body weight loss in comparison to vehicle [1]: decrease the body weight loss
- mice survival rate ([3]; I-A 90 mg/kg i.p. daily): 33%
- Remaining mice, Day 10 ([3]; I-A 90 mg/kg i.p. daily): 8/12
- Remaining mice, Day 14 ([3]; I-A 90 mg/kg i.p. daily): 4/12
- viral load in lung ([3]; I-A 90 mg/kg): no significative impact
- mice survival rate ([3]; I-A 185 mg/kg i.p. daily): 58%
- Remaining mice, Day 10 ([3]; I-A 185 mg/kg i.p. daily): 12/12
- Remaining mice, Day 14 ([3]; I-A 185 mg/kg i.p. daily): 7/12
- viral load in lung ([3]; I-A 185 mg/kg): no significative impact
- mice survival rate ([3]; I-A 500 mg/kg i.p. daily): 75%
- Remaining mice, Day 10 ([3]; I-A 500 mg/kg i.p. daily): 10/12
- Remaining mice, Day 14 ([3]; I-A 500 mg/kg i.p. daily): 9/12
- viral load in lung (quantity of H1N1 particles) ([3]; I-A 500 mg/kg, 8 days after infection, in comparison to the vehicle group): significantly reduced the quantity of H1N1 particles
- body weight in comparison to vehicle (D3-D8) [3, 4]: weak improvement
- clinical scores / clinical states of the mice compared to vehicle group [3, 4]: improved clinical states
- modulation of the recruitment of monocyte derived macrophages ([3]; lung, day 8, flow cytometry): not observed
- number of CD11b+DC ([3]; lung, day 8, flow cytometry): tended to be reduced
- proportion of CD206+ macrophages ([3]; lung, day 8, flow cytometry): increased
- destruction of alveolar macrophages due to the infection ([3]; lung, day 8, flow cytometry, effect did not seem dose dependent): reduced
- body weight evolution D0 to D14 in comparison to vehicle [2]: slight improvement
- clinical score / clinical states of the mice D0 to D14 [2]: significantly improved clinical states
- viral load in lung [2]: no impact
- H1N1 induced lymphopenia in blood (T cells levels) ([2]; D8, cytometry on blood): reduced H1N1 induced lymphopenia
- recruitment of monocyte-derived macrophages and dendritic cells and CD8+ T cells in infected lungs ([2]; D8 post-inoculation, cytometry on lung): reduced the recruitment
- circulating monocytes ([2]; D8 post-inoculation, in comparison to vehicle and oseltamivir-treated animals): decreased circulating monocytes
- animal mortality / efficacy on survival ([2]; I-A 185 mg/kg i.p. once a day, compared to untreated control animals or oseltamivir, 185 mg/kg): reduce animal mortality; also recorded: more effective than oseltamivir
- survival rate at D14 ([2]; I-A 185 mg/kg i.p. once a day): 67%

SMILES: NC(=O)c1ccc[n+]([C@@H]2O[C@H](CO)[C@@H](O)[C@H]2O)c1 [Compound I-G, NICOTINAMIDE RIBOSIDE]
- Remaining mice, Day 11 [1]: 6/12
- Remaining mice, Day 14 [1]: 6/12
- survival rate at the end of the experiment [1]: 50%
- body weight loss in comparison to vehicle [1]: decrease the body weight loss
